Assay results reported in ChEMBL document CHEMBL1138993, “Thyroid receptor ligands. Part 5: novel bicyclic agonist ligands selective for the thyroid hormone receptor beta” (Bioorg Med Chem Lett, 2006).

Key:
[1] = molecular target: T1, Thyroid hormone receptor alpha (Homo sapiens, UniProt P10827)
T1 sequence (P10827 whole entry): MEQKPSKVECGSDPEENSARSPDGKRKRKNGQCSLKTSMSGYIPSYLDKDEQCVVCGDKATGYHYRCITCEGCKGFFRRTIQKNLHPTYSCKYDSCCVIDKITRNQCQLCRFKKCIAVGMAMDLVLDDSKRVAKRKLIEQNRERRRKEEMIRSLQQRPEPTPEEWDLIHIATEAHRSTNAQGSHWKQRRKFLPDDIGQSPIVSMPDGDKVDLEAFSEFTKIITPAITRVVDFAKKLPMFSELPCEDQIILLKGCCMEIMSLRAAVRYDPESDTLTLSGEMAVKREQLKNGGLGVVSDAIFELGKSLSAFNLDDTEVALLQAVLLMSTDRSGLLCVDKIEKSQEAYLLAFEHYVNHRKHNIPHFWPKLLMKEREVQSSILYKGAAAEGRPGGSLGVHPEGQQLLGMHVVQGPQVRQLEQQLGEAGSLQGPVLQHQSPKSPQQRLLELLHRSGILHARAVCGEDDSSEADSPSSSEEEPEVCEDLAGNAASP
Description: Efficacy against TRAF-alpha-1 reporter cells

[2] = molecular target: T2, Thyroid hormone receptor beta (Homo sapiens, UniProt P10828)
T2 sequence (P10828 whole entry): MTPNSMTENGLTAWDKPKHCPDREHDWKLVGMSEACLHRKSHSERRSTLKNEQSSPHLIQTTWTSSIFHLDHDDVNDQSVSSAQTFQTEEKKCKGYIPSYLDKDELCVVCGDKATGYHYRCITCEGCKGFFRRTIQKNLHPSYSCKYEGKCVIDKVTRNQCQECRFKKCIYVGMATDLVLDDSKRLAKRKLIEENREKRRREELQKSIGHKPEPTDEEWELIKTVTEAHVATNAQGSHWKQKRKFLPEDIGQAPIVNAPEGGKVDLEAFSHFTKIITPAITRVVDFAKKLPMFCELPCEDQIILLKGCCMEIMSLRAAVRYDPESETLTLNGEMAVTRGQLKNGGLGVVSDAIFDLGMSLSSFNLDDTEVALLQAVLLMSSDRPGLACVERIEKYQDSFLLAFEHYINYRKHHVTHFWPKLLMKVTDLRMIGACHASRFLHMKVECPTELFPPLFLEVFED
Description: Efficacy against TRAF-beta-1 reporter cells

[3] = molecular target: T1, Thyroid hormone receptor alpha; remark: listed apart in the source
Description: Inhibition of human TR-alpha-1 by radioligand binding assay

[4] = molecular target: T2, Thyroid hormone receptor beta; remark: listed apart in the source
Description: Inhibition of human TR-beta-1 by radioligand binding assay

SMILES: Cc1cc2nc(C(=O)O)ccc2c(C)c1Oc1ccc(O)c(C(C)C)c1
- EC50 [1]: 0.083 µM
- EC50 [2]: 0.049 µM
- IC50 [3]: 0.2 µM
- IC50 [4]: 0.015 µM

SMILES: CC(C)c1cc(Oc2c(Cl)cc3[nH]c(C(=O)O)cc3c2Cl)ccc1O
- EC50 [1]: 0.01 µM
- IC50 [3]: 0.0014 µM

SMILES: CC(C)c1cc(Oc2c(Br)cc3c(c2Br)CC(C(=O)O)C3)ccc1O (stereo not given)
- EC50 [1]: 0.0041 µM
- EC50 [2]: 0.0043 µM
- IC50 [3]: 0.038 µM
- IC50 [4]: 0.0085 µM

SMILES: CC(C)c1cc(Oc2c(Cl)cc3[nH]c(C(=O)O)cc(=O)c3c2Cl)ccc1O
- IC50 [3]: 3.5 µM
- IC50 [4]: 0.87 µM

SMILES: Cc1cc2[nH]c(C(=O)O)cc(=O)c2c(C)c1Oc1ccc(O)c(C(C)C)c1
- IC50 [3]: 0.62 µM
- IC50 [4]: 0.24 µM

SMILES: CC(C)c1cc(Oc2c(Br)cc3nc(C(=O)O)cc(O)c3c2Br)ccc1O
- IC50 [3]: 0.25 µM
- IC50 [4]: 0.051 µM

SMILES: CC(C)c1cc(Oc2c(Br)cc3[nH]c(C(=O)O)cc3c2Br)ccc1O
- EC50 [1]: 0.01 µM
- EC50 [2]: 0.0042 µM
- IC50 [3]: 0.0025 µM
- IC50 [4]: 0.00028 µM
